This is an account of results in ChEMBL document CHEMBL4177596, “Flavonoids and their derivatives with β-amyloid aggregation inhibitory activity from the leaves and twigs of Pithecellobium clypearia Benth” (Bioorg Med Chem Lett, 2017).

Active and inactive are the calls of the source. The rule behind the calls is not given here.

The target in test [1] is Amyloid-beta precursor protein (Homo sapiens) (UniProt P05067). In words: Inhibition of HFIP-pretreated amyloid beta (1 to 42) (unknown origin) self-induced aggregation at 20 uM incubated for 24 hrs under dark condition by thioflavin-T based fluorometric assay relative to control.
Amyloid-beta precursor protein (Homo sapiens), sequence (P05067 whole entry): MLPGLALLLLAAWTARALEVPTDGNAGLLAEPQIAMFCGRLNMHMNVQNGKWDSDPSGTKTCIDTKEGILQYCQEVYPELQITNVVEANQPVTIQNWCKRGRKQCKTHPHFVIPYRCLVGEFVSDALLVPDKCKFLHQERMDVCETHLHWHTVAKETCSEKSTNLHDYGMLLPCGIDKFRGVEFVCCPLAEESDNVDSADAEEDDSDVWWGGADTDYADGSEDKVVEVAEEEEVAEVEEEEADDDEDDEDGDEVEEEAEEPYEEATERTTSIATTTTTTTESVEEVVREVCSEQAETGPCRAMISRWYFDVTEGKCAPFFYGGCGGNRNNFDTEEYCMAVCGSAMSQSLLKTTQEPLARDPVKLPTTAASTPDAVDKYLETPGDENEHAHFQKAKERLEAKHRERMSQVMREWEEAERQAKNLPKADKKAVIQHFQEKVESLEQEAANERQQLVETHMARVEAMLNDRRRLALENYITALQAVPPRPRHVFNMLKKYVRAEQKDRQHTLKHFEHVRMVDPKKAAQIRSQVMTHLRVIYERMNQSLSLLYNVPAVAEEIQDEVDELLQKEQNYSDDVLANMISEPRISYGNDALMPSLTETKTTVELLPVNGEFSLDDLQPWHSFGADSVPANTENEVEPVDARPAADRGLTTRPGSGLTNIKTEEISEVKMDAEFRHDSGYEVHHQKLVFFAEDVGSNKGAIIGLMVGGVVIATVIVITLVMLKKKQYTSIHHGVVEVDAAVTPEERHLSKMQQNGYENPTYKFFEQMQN
The subject of test [2] is SH-SY5Y. In words: Neuroprotective activity against H2O2-induced cell death in human SH-SY5Y cells assessed as increase in cell viability at 100 uM pretreated for 12 hrs followed by H2O2 challenge measured after 3 hrs by MTT assay. The format is functional, cell-based. (Tetrazolium assays rely on reduction of a dye to a coloured formazan, in cell work by metabolically active cells.)

In test [3] the test system is SH-SY5Y. The test is described as follows: Neuroprotective activity against H2O2-induced morphological changes in human SH-SY5Y cells assessed as reduction in appearance of apoptotic bodies at 100 uM by phase contrast microscopic analysis. Format: functional, cell-based.
Test [4] concerns SH-SY5Y. The test is described as follows: Neuroprotective activity against H2O2-induced morphological changes in human SH-SY5Y cells assessed as reduction in cell shrinkage at 100 uM by phase contrast microscopic analysis. Format: functional, cell-based.

Take `COc1cc(OC)c2c(c1)O[C@H](c1cc(O)c(O)c(OC)c1)[C@@H](O)C2`: the inhibition result in test [1] was “Active”. As for `O=c1c(O)c(-c2ccc(O)c(O)c2)oc2cc(O)cc(O)c12`, the inhibition in test [1] came out at 88.4%. Moreover, the result in the test on SH-SY5Y [2] was Active. Regarding `O=C(O[C@@H]1Cc2c(O)cc(O)cc2O[C@@H]1c1cc(O)c(O)c(O)c1)c1cc(O)c(O)c(O)c1`, the inhibition in test [1] was 86.1%. Still for that read-out and setting: the entry for `COc1cc(O)cc2oc(-c3ccc(O)cc3)cc(=O)c12` is “Active”.

For the compound `C[C@@H]1O[C@@H](Oc2c(-c3cc(O)c(O)c(O)c3)oc3cc(O)cc(O)c3c2=O)[C@H](O)[C@H](O)[C@H]1O`, the inhibition in test [1] stood at 62.2%. For the compound `C[C@H]1O[C@H](Oc2c(-c3ccc(O)c(O)c3)oc3cc(O)cc(O)c3c2=O)[C@@H](O)[C@@H](O)[C@@H]1O`, the inhibition in test [1] was 70.7%. For the compound `O=C(Oc1cc(O)c2c(c1)O[C@@H](c1cc(O)c(O)c(O)c1)CC2)c1cc(O)c(O)c(O)c1`, in test [1], the inhibition result was “Active”. In addition, the outcome in the test on SH-SY5Y [2] was Active. For `C[C@@H]1Oc2cccc(O)c2C(=O)[C@@H]1O`, the inhibition result in test [1] is “Active”.

`O=C1c2ccc(O)c(O)c2O[C@H](c2ccc(O)c(O)c2)[C@H]1O`: the inhibition in test [1] is 87.7%. Also, the outcome in the test on SH-SY5Y [3], in the test with SH-SY5Y [2] and with SH-SY5Y [4] was Active. With `O=c1cc(-c2ccc(O)c(O)c2)oc2cc(O)cc(O)c12`, in test [1], the inhibition was 86.5%. Further, the outcome in the test with SH-SY5Y [2] was Active.

As to `O=C(Oc1cc(O)c2c(c1)O[C@H](c1cc(O)c(OC(=O)c3cc(O)c(O)c(O)c3)c(O)c1)[C@@H](O)C2)c1cc(O)c(O)c(O)c1`, the inhibition in test [1] came out at 56.3%. For the same compound, in the test on SH-SY5Y [2], the outcome was Active. As to `COc1cc(-c2cc(=O)c3c(OC)cc(O)cc3o2)ccc1O`, the inhibition entry in test [1] was “Active”. Regarding `Oc1cc([C@@H]2CCc3c(O)cccc3O2)cc(O)c1O`, the inhibition in test [1] turned out to be 59.6%.

Consider `O=C(Oc1cc(O)c2c(c1)O[C@H](c1ccc(O)c(O)c1)[C@@H](O)C2)c1cc(O)c(O)c(O)c1`, for which the inhibition result in test [1] was “Active”. Also, the outcome in the test on SH-SY5Y [2] was Active.

`O=C(Oc1cc(O)c2c(c1)O[C@H](c1cc(O)c(O)c(O)c1)[C@@H](O)C2)c1cc(O)c(O)c(O)c1`: the inhibition result in test [1] is “Active”. Also, in the test on SH-SY5Y [2], the outcome was Active.

In the case of `COc1cc(O)c(C[C@H](O)Cc2ccc(O)c(OC)c2)c(OC)c1`, the inhibition entry in test [1] was “Active”.

By inhibition is commonly meant the share of the control response that was lost under treatment.
